# Reference: US8604085B2, “Bupropion hydrobromide polymorphs” (Valeant International Bermuda, priority 2008, dated 2013)
# Where two headings read alike, the source gives them in different places.
# How the values were obtained:
# Assay type in all cases: physicochemical
# [1] = Forced degradation studies of the API's in the presence of standard excipients; settings: with standard excipients; about 24 and about 48 hours at about 55° C., about 55° C. and 100% relative humidity, about 105° C.
# Description: Forced degradation studies were also performed on bupropion hydrobromide and bupropion hydrochloride API's in the presence of standard excipients used in pharmaceutical formulations.
# [2] = Forced degradation studies of bupropion hydrobromide and bupropion hydrochloride in closed bottles; settings: about 40 degrees C., about 75% relative humidity
# Description: Further stability tests were performed by directly comparing bupropion hydrobromide and bupropion hydrochloride salts in forced degradation studies. […] At specified times, the material in the bottles was analyzed for the presence of degradation products and % potency (% assay).
# [3] = Qualitative solubility screening; settings: thermodynamic from solid, 50 mg in 4 mL, read-out: Solubility at Room Temp (RT)
# Description: Bupropion hydrobromide (50 mg) was introduced in 4 mL of solvent under stirring for about 1 hour at room temperature. See Table 41 for the qualitative solubility data.
# [4] = Comparison of the stability of several bupropion salts in open and closed vials at about 40 degrees C. and about 75% relative humidity (HPLC); settings: about 40 degrees C., about 75% relative humidity, various periods of time
# Description: A comparison of the stability of several bupropion salts, including the hydrobromide, hydrochloride, maleate, tosylate, fumarate, succinate, tartrate and citrate salts, was performed by placing these salts in both open and closed vials in a stability chamber kept at about 40 degrees C. and about 75% relative humidity for various periods of time (e.g. 10 days, 13 days, 14 days, 20 days, 24 days, or 32 days). The stability of the salts was evaluated based on the formation of the main degradation products as determined by HPLC analysis and the % potency (or assay) of the API, after specific time periods in the stability chamber. The effect of the addition of solvents, such as water, ethanol and isopropyl alcohol, was also studied.
structure (smiles),measurement,setting,value
"Br.CC(NC(C)(C)C)C(=O)c1cccc(Cl)c1 (stereo not shown) [Bupropion hydrobromide, 3′-chloro-2-t-butylamino-1-propiophenone hydrobromide]",amount of degradation (bupropion degradation impurities) versus bupropion hydrochloride,[1],lowest amount of degradation
same,% potency compared to the bupropion hydrochloride salt,[2],generally higher
same,amount of impurities compared to the bupropion hydrochloride salt,[2],generally lower
same,solubility,"[3]; organic solvent or mixture, solvent 1,2-Dimethoxy Ethane",< 12.5 mg/mL
same,solubility,"[3]; organic solvent or mixture, solvent 1-Butanol",> 12.5 mg/mL
same,solubility,"[3]; organic solvent or mixture, solvent 1-Methyl-2-Pyrrolidone",> 12.5 mg/mL
same,solubility,"[3]; organic solvent or mixture, solvent 1-Octanol",< 12.5 mg/mL
same,solubility,"[3]; organic solvent or mixture, solvent 1-Propanol",> 12.5 mg/mL
same,solubility,"[3]; organic solvent or mixture, solvent 2-Methoxy Ethanol",> 12.5 mg/mL
same,solubility,"[3]; organic solvent or mixture, solvent 2-Methyl-1-Propanol",> 12.5 mg/mL
same,solubility,"[3]; organic solvent or mixture, solvent 2-Propanol",> 12.5 mg/mL
same,solubility,"[3]; organic solvent or mixture, solvent 3-Pentanone",< 12.5 mg/mL
same,solubility,"[3]; organic solvent or mixture, solvent 4-Methyl-2-Pentanone",< 12.5 mg/mL
same,solubility,"[3]; organic solvent or mixture, solvent (±)2-Butanol",< 12.5 mg/mL
same,solubility,"[3]; organic solvent or mixture, solvent Acetone",< 12.5 mg/mL
same,solubility,"[3]; organic solvent or mixture, solvent Acetonitrile",> 12.5 mg/mL
same,solubility,"[3]; organic solvent or mixture, solvent Benzonitrile",< 12.5 mg/mL
same,solubility,"[3]; organic solvent or mixture, solvent Benzyl Alcohol",> 12.5 mg/mL
same,solubility,"[3]; organic solvent or mixture, solvent Chloroform",> 12.5 mg/mL
same,solubility,"[3]; organic solvent or mixture, solvent Cyclohexane",< 12.5 mg/mL
same,solubility,"[3]; organic solvent or mixture, solvent Dichloromethane",> 12.5 mg/mL
same,solubility,"[3]; organic solvent or mixture, solvent Diethyl Carbonate",< 12.5 mg/mL
same,solubility,"[3]; organic solvent or mixture, solvent Diethyl Ether",< 12.5 mg/mL
same,solubility,"[3]; organic solvent or mixture, solvent Dimethil sulfoxyde",> 12.5 mg/mL
same,solubility,"[3]; organic solvent or mixture, solvent Dimethyl Formamide",> 12.5 mg/mL
same,solubility,"[3]; organic solvent or mixture, solvent Dioxane",< 12.5 mg/mL
same,solubility,"[3]; organic solvent or mixture, solvent Ethanol",> 12.5 mg/mL
same,solubility,"[3]; organic solvent or mixture, solvent Ethyl Acetate",< 12.5 mg/mL
same,solubility,"[3]; organic solvent or mixture, solvent Ethyl Benzoate",< 12.5 mg/mL
same,solubility,"[3]; organic solvent or mixture, solvent Ethyl Formate",< 12.5 mg/mL
same,solubility,"[3]; organic solvent or mixture, solvent Iso-Propyl-Ether",< 12.5 mg/mL
same,solubility,"[3]; organic solvent or mixture, solvent Isopropyl Acetate",< 12.5 mg/mL
same,solubility,"[3]; organic solvent or mixture, solvent Mesitylene",< 12.5 mg/mL
same,solubility,"[3]; organic solvent or mixture, solvent Methanol",> 12.5 mg/mL
same,solubility,"[3]; organic solvent or mixture, solvent Methyl Benzoate",< 12.5 mg/mL
same,solubility,"[3]; organic solvent or mixture, solvent Methyl Ethyl Ketone",< 12.5 mg/mL
same,solubility,"[3]; organic solvent or mixture, solvent Methyl-Cyclohexan",< 12.5 mg/mL
same,solubility,"[3]; organic solvent or mixture, solvent Nitrobenezene",< 12.5 mg/mL
same,solubility,"[3]; organic solvent or mixture, solvent Nitromethane",> 12.5 mg/mL
same,solubility,"[3]; organic solvent or mixture, solvent Propyl Acetate",< 12.5 mg/mL
same,solubility,"[3]; organic solvent or mixture, solvent Tert-Butanol",< 12.5 mg/mL
same,solubility,"[3]; organic solvent or mixture, solvent Tetrahydrofuran",< 12.5 mg/mL
same,solubility,"[3]; organic solvent or mixture, solvent Toluene",< 12.5 mg/mL
same,solubility,"[3]; organic solvent or mixture, solvent n-Hexan",< 12.5 mg/mL
same,solubility,"[3]; organic solvent or mixture, solvent n-Hexane",< 12.5 mg/mL
same,solubility,"[3]; organic solvent or mixture, solvent p-Xylene",< 12.5 mg/mL
same,solubility,"[3]; organic solvent or mixture, solvent t-Butyl Methyl Ether",< 12.5 mg/mL
same,solubility,"[3]; water, solvent Water",> 12.5 mg/mL
same,amount of degradation products compared with other bupropion salts,[4],least amount of degradation products
